In US9878982B2, “Pyridine derivatives and anti-mycobacterial use thereof” (priority 2014, dated 2018):
≈ marks a conversion by molar mass, not a printed value. Where two headings read alike, the source gives them in different places.

Columns and labels:
[1] = system: M. tuberculosis H37R; test: microbe, parasite or virus in culture; type: cell-based, Mycobacterium tuberculosis; details: for MIC: Mycobacterium tuberculosis, H37R, read-out: M. tuberculosis H37R LORA (MIC)
[2] = system: Mycobacterium tuberculosis (ATCC35801); test: In vivo efficacy in a mice model infected with M. tuberculosis by spray (lung bacteria load); details: female Balb/c mice, day 35, compared with the solvent treated group
[3] = in vitro; details: human
[4] = system: Vero Cell; test: Vero cell cytotoxicity (IC50); type: cell-based; details: African green monkey kidney cells; for IC50: Chlorocebus sabaeus, Vero
[5] = system: M. tuberculosis H37Rv; test: In vitro efficacy test using the H37Rv strain, Microplate Alamar Blue Assay (MABA) MIC; type: cell-based, Mycobacterium tuberculosis; details: for MIC: Mycobacterium tuberculosis, H37RV
[6] = system: Hela; test: Hela cell cytotoxicity (CC50); details: human cervical cancer cells; half of the toxic concentration
[7] = system: Mycobacterium smegmatis strain ATCC19420; test: In vitro efficacy test using Mycobacterium smegmatis strain ATCC19420 (MIC); type: cell-based; details: CA-MHB + 0.02% Tween 80, 30° C., read after 72 hours; for MIC: Mycolicibacterium smegmatis, ATCC19420, 72 h
[8] = Hela cell cytotoxicity (CC50); details: human, HeLa cells (human cervical cancer cells), CC50_Hela, half of the toxic concentration
[9] = aerobic, 7H9 medium, Alamar Blue, read-out: M. tuberculosis H37Rv MABA (MIC)
[10] = aerobic, 7H9 medium, Alamar Blue

SMILES: COc1nc2ccc(Br)cc2cc1[C@@H](c1ccccc1)[C@@](O)(CCN(C)C)c1cccc2ccccc12 [Bedaquiline, reference compound]
- MIC [1]: 0.2 µg/mL (≈ 0.36 µM)
- reduction of the amount of the bacteria in the lungs ([2]; 25 mg/kg by gavage once each working day for four weeks): 5.2 log
- CC50 [3]: > 64 µg/mL
- IC50 [4]: > 32 µg/mL
- MIC [5, 9]: 0.03 µg/mL
- MIC ([5]; wild-type H37Rv strain, two values per compound, read-out: MABA MIC vs. H37Rv): 0.06 µM
- MABA MIC vs. H37Rv ([5]; wild-type H37Rv strain, two values per compound): 0.05 µM

SMILES: COc1ncc(C2CCCC2)cc1C(c1ccccc1)C(O)(CCN(C)C)c1cccc2ccccc12 (centres unmarked) [Compound 64]
- M. tuberculosis H37R LORA (MIC) [1]: 3.06 µg/mL
- CC50_Hela [6]: 28.75 µg/mL (≈ 58.1 µM)
- M. smegmatis ATCC19420 MIC [7]: 0.5 µg/mL
- Vero Cell (IC50) [4]: >50 µg/mL
- M. tuberculosis H37Rv MABA (MIC) [5, 10]: 2.33 µg/mL

SMILES: COc1ncc(C2CCCCC2)cc1C(c1ccccc1)C(O)(CCN(C)C)c1cccc2ccccc12 (centres unmarked) [Compound 103, 1-(5-cyclohexyl-2-methoxypyridin-3-yl)-4-(dimethylamino)-2-(naphthalen-1-yl)-1-phenylbutan-2-ol]
- MIC [1]: 1.48 µg/mL (≈ 2.91 µM)
- CC50_Hela [6]: 57.72 µg/mL (≈ 113 µM)
- M. smegmatis ATCC19420 MIC [7]: 0.125 µg/mL
- IC50 [4]: 32.3 µg/mL (≈ 63.5 µM)
- MIC [5, 9]: 0.76 µg/mL

SMILES: COc1ncc(C2CCCCC2)cc1C(c1ccccc1)C(O)(CCN(C)C)c1cccc2ccccc12 (centres unmarked) [Compound 104, 1-(5-cyclohexyl-2-methoxypyridin-3-yl)-4-(dimethylamino)-2-(naphthalen-1-yl)-1-phenylbutan-2-ol]
- M. tuberculosis H37R LORA (MIC) [1]: 1.52 µg/mL
- CC50_Hela [6]: 19.18 µg/mL (≈ 37.7 µM)
- M. smegmatis ATCC19420 MIC [7]: 0.5 µg/mL
- Vero Cell (IC50) [4]: >50 µg/mL
- M. tuberculosis H37Rv MABA (MIC) [5, 10]: 1.45 µg/mL

SMILES: COc1ncc(-c2csc(Br)c2)cc1C(c1ccccc1)C(O)(CCN(C)C)c1cccc2ccccc12 (centres unmarked) [Compound 275]
- M. tuberculosis H37R LORA (MIC) [1]: 0.67 µg/mL
- CC50_Hela [6]: >64 µg/mL
- M. smegmatis ATCC19420 MIC [7]: 0.125 µg/mL
- Vero Cell (IC50) [4]: >32 µg/mL
- M. tuberculosis H37Rv MABA (MIC) [5, 10]: 0.41 µg/mL

SMILES: COc1ncc(-c2ccc(Br)cc2)cc1C(c1ccccc1)C(O)(CCN(C)C)c1cccc(F)c1F (centres unmarked) [Compound 312, 1-(5-(4-bromophenyl)-2-methoxypyridin-3-yl)-2-(2,3-difluorophenyl)-4-(dimethylamino)-1-phenylbutan-2-ol]
- MIC [1]: 0.19 µg/mL (≈ 0.335 µM)
- CC50 [8]: 31.3 µg/mL (≈ 55.2 µM)
- MIC [7]: 0.0156 µg/mL
- IC50 [4]: > 32 µg/mL
- MIC [5, 9]: 0.04 µg/mL

SMILES: COc1ncc(-c2ccc(Br)cc2)cc1C(c1ccccc1)C(O)(CCN(C)C)c1cc(F)cc(F)c1 (centres unmarked) [Compound 316, 1-(5-(4-bromophenyl)-2-methoxypyridin-3-yl)-2-(3,5-difluorophenyl)-4-dimethylamino-1-phenylbutan-2-ol]
- MIC [1]: 2.97 µg/mL (≈ 5.23 µM)
- CC50 [8]: > 64 µg/mL
- MIC [7]: 0.0156 µg/mL
- IC50 [4]: > 32 µg/mL
- MIC [5, 9]: 0.04 µg/mL

SMILES: COc1ncc(-c2ccc(Br)cc2)cc1C(c1ccccc1)C(O)(CCN(C)C)c1cccc(F)c1 (centres unmarked) [Compound 319]
- MIC [1]: 0.22 µg/mL (≈ 0.4 µM)
- CC50 [8]: 49.2 µg/mL (≈ 89.5 µM)
- MIC [7]: 0.0312 µg/mL
- IC50 [4]: > 32 µg/mL
- MIC [5, 9]: 0.09 µg/mL

SMILES: COc1ncc(-c2ccc(Br)cc2)cc1C(c1ccc(Cl)cc1)C(O)(CCN(C)C)c1cccc2ccccc12 (centres unmarked) [Compound 325, 1-(5-(4-bromophenyl)-2-methoxypyridin-3-yl)-1-(4-chlorophenyl)-4-dimethylamino-2-(naphthalen-1-yl)butan-2-ol]
- MIC [1]: 0.125 µg/mL (≈ 0.203 µM)
- CC50 [8]: > 64 µg/mL
- MIC [7]: 0.0312 µg/mL
- IC50 [4]: > 32 µg/mL
- MIC [5, 9]: 0.04 µg/mL

SMILES: COc1ncc(-c2ccc(Br)c(F)c2)cc1C(c1ccccc1)C(O)(CCN(C)C)c1cccc2ccccc12 (centres unmarked) [Compound 331, 1-(5-(4-bromo-3-fluorophenyl)-2-methoxypyridin-3-yl)-4-(dimethylamino)-2-(naphthalen-1-yl)-1-phenylbutan-2-ol]
- MIC [1]: 4.07 µg/mL (≈ 6.79 µM)
- CC50 [8]: > 64 µg/mL
- MIC [7]: 0.0625 µg/mL
- IC50 [4]: > 32 µg/mL
- MIC [5, 9]: 0.04 µg/mL

SMILES: COc1ncc(C#Cc2ccccc2)cc1C(c1ccccc1)C(O)(CCN(C)C)c1cccc2ccccc12 (centres unmarked) [Compound 337, 4-(dimethylamino)-1-[2-methoxy-5-(2-phenylethynyl)-3-pyridyl]-2-(1-naphthyl)-1-phenyl-butan-2-ol]
- MIC [1]: 1.51 µg/mL (≈ 2.87 µM)
- CC50 [8]: > 64 µg/mL
- MIC [7]: 0.25 µg/mL
- IC50 [4]: > 32 µg/mL
- MIC [5, 9]: 0.14 µg/mL

SMILES: COc1ncc(-c2ccc(Cl)cc2)cc1C(c1ccccc1)C(O)(CCN(C)C)c1cc(Cl)cc(Cl)c1 (centres unmarked) [Compound 341, 1-(5-(4-chlorophenyl)-2-methoxypyridin-3-yl)-2-(3,5-dichlorophenyl)-4-(dimethylamino)-1-phenylbutan-2-ol]
- MIC [1]: 0.23 µg/mL (≈ 0.414 µM)
- CC50 [8]: > 64 µg/mL
- MIC [7]: ≤ 0.0625 µg/mL
- IC50 [4]: > 32 µg/mL
- MIC [5, 9]: 0.031 µg/mL

SMILES: COc1ncc(-c2ccc(F)c(F)c2)cc1C(c1ccccc1)C(O)(CCN(C)C)c1cccc2ccccc12 (centres unmarked) [Compound 347]
- MIC [1]: 0.51 µg/mL (≈ 0.947 µM)
- CC50 [8]: > 64 µg/mL
- MIC [7]: 0.0625 µg/mL
- IC50 [4]: > 32 µg/mL
- MIC [5, 9]: 0.23 µg/mL

SMILES: COc1ncc(-c2ccc(Cl)cc2)cc1C(c1ccccc1)C(O)(CCN(C)C)c1cccc(Cl)c1 (centres unmarked) [Compound 351, 2-(3-chlorophenyl)-1-(5-(4-chlorophenyl)-2-methoxypyridin-3-yl)-4-(dimethylamino)-1-phenylbutan-2-ol]
- MIC [1]: 0.16 µg/mL (≈ 0.307 µM)
- CC50 [8]: 25.5 µg/mL (≈ 48.9 µM)
- MIC [7]: 0.0156 µg/mL
- IC50 [4]: > 32 µg/mL
- MIC [5, 9]: 0.11 µg/mL

SMILES: COc1ncc(-c2ccc(Br)cc2)cc1C(c1ccccc1)C(O)(CCN(C)C)c1cccc(Cl)c1 (centres unmarked) [Compound 355, 1-(5-(4-bromophenyl)-2-methoxypyridin-3-yl)-2-(3-chlorophenyl)-4-(dimethylamino)-1-phenylbutan-2-ol]
- MIC [1]: 0.21 µg/mL (≈ 0.371 µM)
- CC50 [8]: 53.2 µg/mL (≈ 94.1 µM)
- MIC [7]: 0.0156 µg/mL
- IC50 [4]: > 32 µg/mL
- MIC [5, 9]: 0.17 µg/mL

SMILES: COc1ncc(-c2ccc(OC(F)(F)F)cc2)cc1C(c1ccccc1)C(O)(CCN(C)C)c1cccc2ccccc12 (centres unmarked) [Compound 375, 4-(dimethylamino)-1 (2-methoxy-5-(4-(trifluoromethoxy)phenyl)pyridin-3-yl)-2-(naphthalen-1-yl)-1-phenylbutan-2-ol]
- MIC [1]: 0.61 µg/mL (≈ 1.04 µM)
- CC50 [8]: > 64 µg/mL
- MIC [7]: 0.0156 µg/mL
- IC50 [4]: > 32 µg/mL
- MIC [5, 9]: 0.031 µg/mL

SMILES: CO[C@H]1/C=C/O[C@@]2(C)Oc3c(C)c(O)c4c(O)c(c(/C=N/N5CCN(C)CC5)c(O)c4c3C2=O)NC(=O)/C(C)=C\C=C\[C@H](C)[C@H](O)[C@@H](C)[C@@H](O)[C@@H](C)[C@H](OC(C)=O)[C@@H]1C [rifampicin]
- reduction of the amount of the bacteria in the lungs ([2]; 15 mg/kg by gavage once each working day for four weeks): 1.8 log
